Data published in patent publication US20030236212A1, “Functionalized long chain derivatives as acyl coenzyme-A mimics, compositions thereof, and methods of cholesterol management and related uses” (priority 2002, published 2003).

How the values were obtained:
primary rat hepatocytes = assay: Synthesis of total lipids (14C-acetate labeling) in primary rat hepatocytes; format: cell-based; conditions: rat hepatocyte cells, 14C-acetate 4 hr, vs vehicle control
Procedure: A male Sprague-Dawley rate was anesthetized by administration of sodium pentobarbitol by intraperitoneal at 80 mg/kg. In situ perfusion of the liver was performed as follows. The abdomen of the animal was opened, the portal vein canulated, and the liver perfused with WOSH solution (149 mM NaCl, 9.2 mM Na HEPES, 1.7 mM Fructose, 0.5 mM EGTA, 0.029 mM Phenol red, 10 U/ml heparin, pH 7.5) at a flow rate of 30 ml/min for 6 minutes. To digest the liver, DSC solution (6.7 mM KCl, 143 mM NaCl, 9.2 mM Na HEPES, 5 mM CaCl2-2H2O, 1.7 mM Fructose, 0.029 mM Phenol red, 0.2% BSA, 100 U/ml collagenase Type 1,160 BAEE/ml trypsin inhibitor, pH 7.5) was perfused through the liver at a flow rate of 30 ml/min for 6 minutes at a temperature of 37° C. After digestion, cells were dispersed in a solution of DMEM-(DMEM containing 2 mM GlutMax-1, 0.2% BSA, 5% FBS, 12 nM insulin, 1.2 μM hydrocortisone) to stop the digestion process. The crude cell suspension was filtered through three layers of stainless steel mesh with pore sizes of 250, 106, and 75 μm respectively. Filtered cells were centrifuged at 50×g for two minutes and the supernatant discarded. The resulting cell pellet was resuspended in DMEM and centrifuged again. This final cell pellet was resuspended in DMEM+HS solution (DMEM containing 2 mM GlutMax-1, 20 mM delta-aminolevulinic acid, 17.4 mM MEM nonessential amino acids, 20% FBS, 12 nM insulin, 1.2 μM hydrocortisone) and plated to form monolayer cultures at a density of 100×10^3 cells/cm^2 on collagen coated culture dishes.
To test the effect of an illustrative compound of the invention on synthesis rates of total lipids, the monolayer cultures were exposed to 1, 3, 10, 30, 100, or 300 μM of Compound A or 10 μM of Compound 1 in DMEM+containing 1 μCi/ml 14C-acetate, D-glucose, hepes, glutamine, leucine, alanine, lactate, pyruvate, non-essential amino acids, BSA, and gentamicine. Control cells were exposed to the same media lacking lovastatin or the test compounds. All cells were exposed to 0.1% DMSO. Metabolic labeling with ^14C-acetate continued for 4 hr at 37° C. After labeling, cells were washed twice with 1 mL of PBS followed by addition of scintallant (Microscent E) and counted on Topcount®.

obese female Zucker rats = assay: Oral daily treatment of obese female Zucker rats for 14 days (body weight, serum lipids, glucose, insulin); format: in vivo, rat; set-up: HDL-C / Glucose / Insulin / NEFA / BHA / TG / TC / Non HDL-C: unit not given here
Procedure: The dosing vehicle was administered to control animals in parallel experiments.
Body weight was determined daily prior to dosing. Animals were allowed free access to rodent chow and water throughout the study. Blood glucose was determined after a 6-hour fast in the afternoon without anesthesia from a tail vein. Serum was also prepared from a blood sample subsequently obtained from the orbital venous plexus (with O2/CO2 anesthesia) prior to and after one week treatment and used lipid and insulin determinations. At two weeks, blood glucose was again determined after a 6-hour fast without anesthesia from a tail vein. Soon thereafter, animals were sacrificed by CO2 inhalation in the afternoon and cardiac blood serum was collected and assessed for various lipids and insulin.

[1] = obese female Zucker rats, oral gavage daily 14 days, 100 mg/kg
[2] = obese female Zucker rats, oral, 14 days, 100 mg/kg/day (Table 1)

melting point: 185 to 186 °C
Compound: CC(C)(CCCCOCCCCC(C)(C)COP(=O)(O)O)COP(=O)(O)O.N.N.N.N [Compound A]
reduction of rates of total lipid synthesis (primary rat hepatocytes; 3 μM): at least 97%
reduction of rates of total lipid synthesis (primary rat hepatocytes; 10 μM): at least 97%
serum insulin relative to pretreatment (obese female Zucker rats; fasted obese female Zucker rats, two weeks of treatment, 100 mg/kg): rose slightly
liver to body weight (obese female Zucker rats; [1]): increased
serum non-esterified fatty acids (obese female Zucker rats; [1]): reduced
serum total cholesterol (obese female Zucker rats; [1]): elevated
serum triglycerides (obese female Zucker rats; [1]): reduced
weight gain, percent of initial weight after two weeks (obese female Zucker rats; [1]): 1%
β-hydroxy butyrate levels (obese female Zucker rats; [1]): elevated
BHA (obese female Zucker rats; [2]): 1 ± 0.5
Glucose (obese female Zucker rats; [2]): 5.6 ± 4.2
HDL-C (obese female Zucker rats; [2]): 186.7 ± 51.5
Insulin (obese female Zucker rats; [2]): 10.6 ± 26.3
NEFA (obese female Zucker rats; [2]): 0.059 ± 0.003
Non HDL-C (obese female Zucker rats; [2]): −30.6 ± 15.4
TC (obese female Zucker rats; [2]): −85.7 ± 1.2
TG (obese female Zucker rats; [2]): 833.8 ± 209.9
ratio of non-HDL cholesterol to HDL cholesterol content (obese female Zucker rats; obese female Zucker rats, relative to control and reference compound-treated animals, 100 mg/kg): improved
HDL-cholesterol elevation (obese female Zucker rats; obese female Zucker rats, two-week treatment, 100 mg/kg): 9 fold
body weight increases (obese female Zucker rats; obese female Zucker rats, versus reference compound-treated animals, 100 mg/kg): did not cause the body weight increases
